Target: T1, MshA (CgMshA) (Corynebacterium glutamicum, UniProt Q8NTA6)
T1 sequence (Q8NTA6 1-418): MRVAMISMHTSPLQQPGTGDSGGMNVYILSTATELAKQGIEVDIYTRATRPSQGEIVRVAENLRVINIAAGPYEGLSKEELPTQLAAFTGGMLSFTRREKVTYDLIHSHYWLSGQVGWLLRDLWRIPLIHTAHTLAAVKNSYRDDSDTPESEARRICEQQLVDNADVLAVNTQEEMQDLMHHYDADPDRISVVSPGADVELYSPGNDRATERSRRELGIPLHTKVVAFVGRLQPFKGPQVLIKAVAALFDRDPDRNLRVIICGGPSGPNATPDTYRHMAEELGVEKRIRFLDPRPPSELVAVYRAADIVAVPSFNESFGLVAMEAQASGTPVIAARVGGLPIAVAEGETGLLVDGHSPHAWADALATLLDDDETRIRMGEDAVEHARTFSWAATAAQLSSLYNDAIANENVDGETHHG
Assay: steady-state enzyme inhibition kinetics and slow-binding progress curves
Assay type: biochemical

- Ki: 1.4 ± 0.2 µM
Compound: CC(=O)N[C@H]1[C@@H](OP(=O)(O)OP(=O)(O)OC[C@H]2O[C@@H](n3ccc(=O)[nH]c3=O)[C@H](O)[C@@H]2O)O[C@](F)(CO)[C@@H](O)[C@@H]1O [UDP-(5F)-GlcNAc]

— article PMC2872082 (Journal of the American Chemical Society, 2010)
